Tests used:
Experiment in all cases: Inhibition Assay
Conditions in all cases: pH 7.4; 25 °C
[1] = molecular target: Carbonic anhydrase 1 (Homo sapiens, UniProt P00915)
Excerpt: (§1) Inhibition assay using human Carbonic anhydrase I and II and bovine carbonic anhydrase IV.

[2] = molecular target: Carbonic anhydrase 2 (Homo sapiens, UniProt P00918)
Excerpt: as §1

[3] = molecular target: T1, Carbonic anhydrase 4 (Bos taurus, UniProt Q95323)
T1 sequence (Q95323 whole entry): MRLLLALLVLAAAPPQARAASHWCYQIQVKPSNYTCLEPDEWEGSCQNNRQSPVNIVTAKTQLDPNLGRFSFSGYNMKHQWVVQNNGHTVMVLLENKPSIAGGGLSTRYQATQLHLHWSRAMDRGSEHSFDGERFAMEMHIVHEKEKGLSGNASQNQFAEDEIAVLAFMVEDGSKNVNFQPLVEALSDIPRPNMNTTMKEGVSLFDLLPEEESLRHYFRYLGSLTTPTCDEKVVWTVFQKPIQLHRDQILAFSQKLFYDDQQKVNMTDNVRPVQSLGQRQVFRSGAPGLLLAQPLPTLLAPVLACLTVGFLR
Excerpt: as §1

Sequence of Carbonic anhydrase 1 (P00915 whole entry): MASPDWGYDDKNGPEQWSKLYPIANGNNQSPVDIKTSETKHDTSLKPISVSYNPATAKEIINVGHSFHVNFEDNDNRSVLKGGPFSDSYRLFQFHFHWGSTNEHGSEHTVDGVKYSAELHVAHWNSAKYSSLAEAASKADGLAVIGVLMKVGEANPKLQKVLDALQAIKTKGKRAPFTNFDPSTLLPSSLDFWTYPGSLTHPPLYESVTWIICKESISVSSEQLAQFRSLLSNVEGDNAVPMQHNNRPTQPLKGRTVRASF

Ki [1] | Ki [2] | Ki [3] | Compound
> 1000 nM | 21 nM | 54 nM | NS(=O)(=O)OCc1csc(-c2ccc(S(=O)(=O)c3ccc(Br)cc3)cc2)n1 [2-[4-(4-Bromophenylsulfonyl)-Phenyl}-thiazole-4-yl-methyl-sulfamate, 3c]
> 1000 nM | 16 nM | 50 nM | NS(=O)(=O)NCc1csc(-c2ccc(S(=O)(=O)c3ccc(Br)cc3)cc2)n1 [2-[4-(4-Bromophenylsulfonyl)-Phenyl}-thiazole-4-yl-methyl-sulfamide, 2c]
> 1000 nM | 30 nM | 66 nM | NS(=O)(=O)OCc1csc(-c2ccc(S(=O)(=O)c3ccc(Cl)cc3)cc2)n1 [2-[4-(4-Chlorophenylsulfonyl)-Phenyl}-thiazole-4-yl-methyl-sulfamate, 3b]
> 1000 nM | 24 nM | 65 nM | NS(=O)(=O)NCc1csc(-c2ccc(S(=O)(=O)c3ccc(Cl)cc3)cc2)n1 [2-[4-(4-Chlorophenylsulfonyl)-Phenyl}-thiazole-4-yl-methyl-sulfamide, 2b]
> 1000 nM | 33 nM | 87 nM | NS(=O)(=O)OCc1csc(-c2ccc(S(=O)(=O)c3ccccc3)cc2)n1 [2-[4-(Phenylsulfonyl)-Phenyl}-thiazole-4-yl-methyl-sulfamate, 3a]
> 1000 nM | 28 nM | 83 nM | NS(=O)(=O)NCc1csc(-c2ccc(S(=O)(=O)c3ccccc3)cc2)n1 [2-[4-(Phenylsulfonyl)-Phenyl}-thiazole-4-yl-methyl-sulfamide, 2a]

Source: BindingDB's records for PubMed 11916140 (Universit&Agrave, 2001)
